Laboratory results reported in PMC5915149, “The role of oxidative stress in activity of anticancer thiosemicarbazones” (Oncotarget, 2018).
Where two headings read alike, the source gives them in different places. Values belong to the molecule of their own block, whether it stands above or below them.

Key:
calf-thymus DNA (CT-DNA) [1] = test system: calf-thymus DNA (CT-DNA); parameters: method as in PMID 26599982; conditions: cited from earlier work
MCF-7 = assay: MTS antiproliferative assay, MCF-7 (with or without added metal ions); format: cell-based, human
Procedure: (§1) The cells were seeded in 96-well plates (Nunc) at a density of 3,500 cells/well (HCT116 and MCF-7) and 3,000 cells/well (NHDF) and incubated at 37° C for 24 h. The assay was performed following a 96 h incubation with varying concentrations of the compounds that were being tested. Then, 20 µL of CellTiter 96® AQueous One Solution-MTS (Promega) was added to each well (with 100 µL DMEM without phenol red) and incubated for 1 h at 37° C. The optical densities of the samples were analyzed at 490 nm using a multi-plate reader (Synergy 4, Bio Tek). Results were expressed as a percentage of the control and calculated as the inhibitory concentration (IC50) values (using GraphPad Prism 5). The IC50 parameter was defined as the compound concentration that was necessary to reduce the proliferation of cells to 50% of the untreated control. Each individual compound was tested in triplicate in a single experiment with each experiment being repeated three or four times.
(§2) The HCT116 and MCF-7 cells were seeded in 96-well plates (Nunc) at a density of 3,500 cells/well and incubated at 37° C for 24 h. The MTS assay was performed following a 96 h incubation with varying concentrations of the tested compounds. Additionally, a 20 µM solution of CuSO4, FeSO4 or FeCl3 was added into wells with the tested compounds. The results were expressed as a percentage of the control and calculated as the inhibitory concentration (IC50) values using GraphPad Prism 5. Each individual compound was tested in triplicate in a single experiment with each experiment being repeated three times.

NHDF [2] = assay: MTS cytotoxicity assay, normal fibroblasts; format: cell-based, human; conditions: 96 h incubation
Procedure: as §1

HCT116 [3] = assay: MTS antiproliferative assay, HCT116 (with or without added metal ions); format: cell-based, human
Procedure: as §1, §2

p21 = assay: Western blot of p21; format: cell-based, human; conditions: HCT116, 1 µM
Procedure: (§3) The HCT116 cells were seeded in 3 cm Petri dishes (Nunc) at a density of 0.5·10^6 cells/well and incubated overnight. The next day, solutions of TSC (1 μM) and DOX (5 μM) were added and the cells incubated for 24 or 48 h. Cells were harvested by trypsinization and washed with cold PBS. Next, the cells were centrifuged and suspended in an RIPA buffer (Thermo Scientific) containing Halt Protease Inhibitor Cocktail (Thermo Scientific), Halt Phosphatase Inhibitor Cocktail (Thermo Scientific) along with 0.5 M EDTA and lysed for 20 min on ice. Then, the lysates were sonicated, centrifuged at 10,000 rpm for 10 min at 4° C and the supernatants were collected for further analysis. The protein concentration was determined using a Micro BCA™ Protein Assay Kit (Thermo Scientific) according to the manufacturer’s instructions. Equal amounts of the proteins (20 μg) were electrophoresed on SDS-Page gels and transferred onto a nitrocellulose membranes. The membranes were blocked in 5% non-fat milk prepared in PBS containing 0.1% Tween-20 (TPBS) for 1 h. After blocking, the membranes were incubated with specific primary antibodies: cdc2 (#POH1, Cell Signaling), p21^Waf1/Cip1 (#12D1, Cell Signaling), p53 (#1C12, Cell Signaling) and β-Actin (#8H10D10, Cell Signaling) overnight at 4° C, then washed and incubated with horseradish peroxidase (HRP)-conjugated secondary antibodies for 1h at room temperature. All of antibodies were diluted 1:1000 in 5% milk in TPBS. Finally, the membranes were washed and incubated with a SuperSignal™ West Pico Chemiluminescent Substrate (Thermo Scientific). The chemiluminescence signals were captured using a ChemiDoc™ XRS+ System (BioRad). The experiments were performed at least three times. Densitometric analysis was performed using ImageJ 1.41 software (Wayne Rasband, National Institutes of Health, USA).

HCT116 [4] = test system: HCT116; parameters: method as in PMID 25329549; conditions: 96 h incubation, MTS; cited from earlier work
MnSOD = assay: mRNA expression (Real-Time PCR) of MnSOD; format: cell-based, human; conditions: HCT116, TSC 1 µM, 12 or 24 h
Procedure: (§4) The HCT116 cells were seeded in 3 cm Petri dishes (Nunc) at a density of 0.5·10^6 cells/well and incubated overnight. Next, the medium was removed and solutions of TSC (1 μM) and DOX (5 μM) were added. After 12 or 24 h, total RNA was isolated from the cells using TRIzol Reagent (Ambion) according to the manufacturer’s instructions. cDNA synthesis was performed with 5 μg of total RNA using a GoScript™ Reverse Transcriptase kit (Promega) and Oligo(dT)23 Primers (Sigma). The Real-Time PCR was performed with a CTX96 Touch™ Real-Time PCR Detection System (Biorad) in a 20 μL reaction volume. The reaction consisted of PowerUp™ SYBR® Green Master Mix (Applied Biosystems), a primer pair mix (0.5 μM each) and 1 μL of cDNA. All primer pair sequences were purchased from Sigma-Aldrich and are listed in Supplementary Table 2. The experiment was performed under the following conditions: initial denaturation at 95° C for 120 sec; followed by 40 denaturation cycles at 95° C, 15 sec; annealing (primer-specific temperature for 30 sec) and extension at 72° C for 60 sec. Data was analyzed based on a comparison of the expression of the target genes to a reference gene – β-actin, using the 2^–ΔΔCT method. The experiments were performed at least three times.

cdc2 = assay: Western blot of cdc2; format: cell-based, human; conditions: HCT116, 1 µM
Procedure: as §3

NHDF [5] = test system: NHDF; parameters: method as in PMID 25329549; conditions: 96 h incubation, MTS; cited from earlier work
calf-thymus DNA (CT-DNA) [6] = assay: Intercalation, absorption spectra with CT-DNA; format: binding; conditions: for % hypochromism / Changes in absorbance / Δε: bound to CT-DNA; for blue/red shift: wavelengths of maximum absorption, compound alone vs DNA-bound
Procedure: For the DNA binding studies, Calf-thymus DNA (CT-DNA) was purchased from Sigma Aldrich. The lyophilized CT-DNA was dissolved in 10 mM Tris-HCl, pH 7.9, mixed gently and left overnight at 4° C. The purity of the CT-DNA solution was determined by measuring the ratio of UV absorbance at 260 and 280 nm. […] Then, the concentration of CT-DNA was determined from the absorbance at 260 nm using an extinction coefficient of 6600 M^–1cm^–1. The tested TSC and DOX were dissolved in DMSO to a concentration of 8.35 mM, which was then used as the stock solution for preparing the various concentrations (25, 12.5, 6 and 3 µM) in 1 mL in 10 mM of Tris-HCl (pH 7.9). Afterwards, 18 µM CT-DNA was added to the prepared solutions, which were incubated for 1.5 h at 37° C with occasional vortexing. The absorption spectra were measured using a Hitachi U-2900 spectrophotometer in range of 200–500 nm. All absorption spectra were imported and compared in OriginPro 8.0.

Ndrg1 = assay: mRNA expression (Real-Time PCR) of Ndrg1; format: cell-based, human; conditions: HCT116, TSC 1 µM, 24 h
Procedure: as §4

HCT116 cells = assay: Time dependent measurement of ROS level; format: cell-based, human; conditions: 1 µM; 3, 6, 9, 12, 24 h
Procedure: To determine the intracellular levels of ROS, HCT116 cells were seeded onto black 96-well plates (Corning) at a density of 9,000 cells/well and incubated at 37° C. After an overnight incubation, the solutions of the tested compounds: 1a-c, 2 a-b, 3 a-c, Dp44mT (1 μM) and DOX (5 μM) were added and incubated for 3, 6, 9, 12, and 24 h in a kinetic experiment. The generation of ROS was measured using a CellROX® Green Reagent (Molecular Probes™). Additionally, the quantity of cells in each well was determined using Hoechst 33342 (Molecular Probes™). The solutions of the tested compounds were removed and 100 µL of CellROX Green Reagent and Hoechst 33342 at a final concentration of 5 μM were added to each well. Then, the cells were incubated for 30 min at 37° C. The fluorescence was measured using a multi-plate reader (Synergy 4, Bio Tek) at 485 nm excitation and a 520 nm emission for CellROX Green Reagent and a 345 nm excitation laser and a 485 nm emission filter for Hoechst 33342. The experiments were performed three to four times. ROS levels were expressed as the percentage of the control cells level.

CAT = assay: mRNA expression (Real-Time PCR) of CAT; format: cell-based, human; conditions: HCT116, TSC 1 µM, after the first 12 h
Procedure: as §4

[7] = 96 h, 20 µM CuSO4 added, read-out: Activity - IC50 MCF-7+ Cu^2+
[8] = 96 h, 20 µM FeCl3 added, read-out: Activity - IC50 MCF-7+ Fe^3+
[9] = 96 h incubation, MTS, read-out: Activity - IC50 MCF-7
[10] = 96 h, 20 µM CuSO4 added, read-out: Activity - IC50 HCT116+ Cu^2+
[11] = 96 h, 20 µM FeCl3 added, read-out: Activity - IC50 HCT116+ Fe^3+

IC50 (MCF-7; Homo sapiens, MCF7, 96 h, 20 µM CuSO4 added, read-out: Activity - IC50 MCF-7+ Cu^2+): 0.336 ± 0.0653 µM
IC50 (MCF-7; Homo sapiens, MCF7, 96 h, 20 µM FeCl3 added, read-out: Activity - IC50 MCF-7+ Fe^3+): 0.414 ± 0.059 µM
IC50 (MCF-7; Homo sapiens, MCF7, 96 h incubation, MTS, read-out: Activity - IC50 MCF-7): 0.405 ± 0.038 µM
IC50 (HCT116 [3]; Homo sapiens, HCT-116, 96 h, 20 µM CuSO4 added, read-out: Activity - IC50 HCT116+ Cu^2+): 0.0625 ± 0.00824 µM
IC50 (HCT116 [3]; Homo sapiens, HCT-116, 96 h, 20 µM FeCl3 added, read-out: Activity - IC50 HCT116+ Fe^3+): 0.0848 ± 0.0112 µM
IC50 (HCT116 [3]; Homo sapiens, HCT-116, 96 h incubation, MTS, read-out: Activity - IC50 HCT116): 0.091 ± 0.00696 µM
Compound: COc1cccc2c1C(=O)c1c(O)c3c(c(O)c1C2=O)C[C@@](O)(C(=O)CO)C[C@@H]3O[C@H]1C[C@H](N)[C@H](O)[C@H](C)O1 [DOX, doxorubicin, reference compound]
% hypochromism (calf-thymus DNA (CT-DNA) [1]; bound to CT-DNA): 34.2%
Changes in absorbance (calf-thymus DNA (CT-DNA) [1]; bound to CT-DNA): hypochromism
Δε (calf-thymus DNA (CT-DNA) [1]; bound to CT-DNA): 3235.6 M⁻¹ cm⁻¹
% hypochromism (calf-thymus DNA (CT-DNA) [1]; bound to CT-DNA, listed as doxorubicin): about 34.2%
blue/red shift (calf-thymus DNA (CT-DNA) [1]; wavelengths of maximum absorption, compound alone vs DNA-bound): 10 nm
Selectivity index, calculated for MCF-7 (MCF-7; versus NHDF): 0.3
IC50 (NHDF [2]; Homo sapiens, NHDF): 0.137 ± 0.026 µM
Selectivity index, calculated for HCT116 (HCT116 [3]; versus NHDF): 1.5

IC50 (MCF-7; [7]): 0.00441 ± 0.0015 µM
IC50 (MCF-7; [8]): 0.0166 ± 0.00225 µM
IC50 (MCF-7; [9]): 0.0256 ± 0.00674 µM
IC50 (HCT116 [3]; [10]): 0.00495 ± 0.00164 µM
IC50 (HCT116 [3]; [11]): 0.0295 ± 0.00369 µM
Compound: S=C(NN=C(c1ccccn1)c1ccccn1)N1CCN(c2cnccn2)CC1 [Compound 3c]
expression of p21 protein (densitometric analysis) (p21): marked up-regulation
IC50 (HCT116 [4]): 0.0378 ± 0.00305 µM
mRNA expression of MnSOD (MnSOD): large drop
expression of cdc2 protein (densitometric analysis) (cdc2): strongest decreasing effect
IC50 (NHDF [5]): 0.01385 ± 3e-05 µM
% hypochromism (calf-thymus DNA (CT-DNA) [6]): 28.5%
Changes in absorbance (calf-thymus DNA (CT-DNA) [6]): hypochromism
Δε (calf-thymus DNA (CT-DNA) [6]): 3220.0 M⁻¹ cm⁻¹
blue/red shift (calf-thymus DNA (CT-DNA) [6]): 2 nm
mRNA expression of Ndrg1 (Ndrg1): strongest
level of ROS, normalized to untreated cells (HCT116 cells): only a minute increase

IC50 (MCF-7; [7]): 0.00448 ± 0.00118 µM
IC50 (MCF-7; [8]): 0.0391 ± 0.00651 µM
IC50 (MCF-7; [9]): 0.0173 ± 0.00271 µM
IC50 (HCT116 [3]; [10]): 0.00719 ± 0.00184 µM
IC50 (HCT116 [3]; [11]): 0.0708 ± 0.00728 µM
IC50 (HCT116 [3]; 96 h incubation, MTS, read-out: Activity - IC50 HCT116): 0.0721 ± 0.0094 µM
Compound: FC(F)(F)c1cnc(N2CCN(C(=S)NN=Cc3ccc4ccccc4n3)CC2)c(Cl)c1 [Compound 1c]
expression of p21 protein (densitometric analysis) (p21): marked up-regulation
mRNA expression of CAT (CAT): higher
IC50 (NHDF [2]): 17.1 µM
improvement in cytotoxicity after interacting with Cu^2+ (HCT116 [3]; HCT116 cells, 20 µM CuSO4): more than a ten-fold increase
% hypochromism (calf-thymus DNA (CT-DNA) [6]): 22.6%
Changes in absorbance (calf-thymus DNA (CT-DNA) [6]): hypochromism
Δε (calf-thymus DNA (CT-DNA) [6]): 2695.6 M⁻¹ cm⁻¹
blue/red shift (calf-thymus DNA (CT-DNA) [6]): 4 nm
